For one experiment, the target named is CDK9/CycT1 (Homo sapiens (Human), UniProt P50750). Nature of the experiment: CDK9/CycT1 kinase assay (Method 1a). It is filed as biochemical. Particulars: for IC50: 10 μM ATP; for Selectivity CDK9/CDK2: derived from Methods 1a. and 2.
The target of the next experiment is CDK2/CycE (Homo sapiens (Human), UniProt P24941). Nature of the experiment: CDK2/CycE kinase assay (Method 2). It is filed as biochemical. The following applies: 10 μM ATP.
Experiment [1] concerns HeLa-MaTu-ADR, multidrug-resistant human cervical carcinoma cells. The experiment in a line: Proliferation assay, HeLa-MaTu-ADR (Method 3). The class given is cell-based. Particulars: 4 days, crystal violet, read-out: Inhibition of HeLa-MaTu-ADR cell proliferation IC50. On the procedure:
(§1) After 24 hours, the cells of one plate (zero-point plate) were stained with crystal violet (see below), while the medium of the other plates was replaced by fresh culture medium (200 μl), to which the test substances were added in various concentrations (0 μM, as well as in the range of 0.001-10 μM; the final concentration of the solvent dimethyl sulfoxide was 0.5%). The cells were incubated for 4 days in the presence of test substances. Cell proliferation was determined by staining the cells with crystal violet: the cells were fixed by adding 20 μl/measuring point of an 11% glutaric aldehyde solution for 15 minutes at room temperature. After three washing cycles of the fixed cells with water, the plates were dried at room temperature. The cells were stained by adding 100 μl/measuring point of a 0.1% crystal violet solution (pH 3.0). After three washing cycles of the stained cells with water, the plates were dried at room temperature. The dye was dissolved by adding 100 μl/measuring point of a 10% acetic acid solution. The extinction was determined by photometry at a wavelength of 595 nm. The change of cell number, in percent, was calculated by normalization of the measured values to the extinction values of the zero-point plate (=0%) and the extinction of the untreated (0 μm) cells (=100%).

In experiment [2] the test system is NCI-H460, human non-small cell lung carcinoma cells. Nature of the experiment: Proliferation assay, NCI-H460 (Method 3). It is filed as cell-based. Particulars: NCI-H460, 4 days, crystal violet, read-out: Inhibition of H460 cell proliferation IC50. How it is done: as §1
The test system of experiment [3] is Caco-2, human colorectal carcinoma cells. Nature of the experiment: Proliferation assay, Caco-2 (Method 3). The class given is cell-based. Particulars: Caco-2, 4 days, crystal violet, read-out: Inhibition of Caco-2 cell proliferation IC50. On the procedure:
as §1

Read-outs that look alike come from different tables or passages of the source.

Sequence of CDK9/CycT1 (P50750 whole entry): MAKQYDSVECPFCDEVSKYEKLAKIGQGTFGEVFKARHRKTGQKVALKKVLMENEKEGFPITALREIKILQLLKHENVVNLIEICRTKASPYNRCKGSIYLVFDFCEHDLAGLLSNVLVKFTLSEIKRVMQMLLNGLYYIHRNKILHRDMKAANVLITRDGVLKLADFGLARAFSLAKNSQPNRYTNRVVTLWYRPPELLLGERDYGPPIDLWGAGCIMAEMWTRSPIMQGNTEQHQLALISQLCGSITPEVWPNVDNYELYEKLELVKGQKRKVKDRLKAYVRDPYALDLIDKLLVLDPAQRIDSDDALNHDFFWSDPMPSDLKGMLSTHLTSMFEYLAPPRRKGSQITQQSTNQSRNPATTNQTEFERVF
Sequence of CDK9/CycT1 (O60563 whole entry partner): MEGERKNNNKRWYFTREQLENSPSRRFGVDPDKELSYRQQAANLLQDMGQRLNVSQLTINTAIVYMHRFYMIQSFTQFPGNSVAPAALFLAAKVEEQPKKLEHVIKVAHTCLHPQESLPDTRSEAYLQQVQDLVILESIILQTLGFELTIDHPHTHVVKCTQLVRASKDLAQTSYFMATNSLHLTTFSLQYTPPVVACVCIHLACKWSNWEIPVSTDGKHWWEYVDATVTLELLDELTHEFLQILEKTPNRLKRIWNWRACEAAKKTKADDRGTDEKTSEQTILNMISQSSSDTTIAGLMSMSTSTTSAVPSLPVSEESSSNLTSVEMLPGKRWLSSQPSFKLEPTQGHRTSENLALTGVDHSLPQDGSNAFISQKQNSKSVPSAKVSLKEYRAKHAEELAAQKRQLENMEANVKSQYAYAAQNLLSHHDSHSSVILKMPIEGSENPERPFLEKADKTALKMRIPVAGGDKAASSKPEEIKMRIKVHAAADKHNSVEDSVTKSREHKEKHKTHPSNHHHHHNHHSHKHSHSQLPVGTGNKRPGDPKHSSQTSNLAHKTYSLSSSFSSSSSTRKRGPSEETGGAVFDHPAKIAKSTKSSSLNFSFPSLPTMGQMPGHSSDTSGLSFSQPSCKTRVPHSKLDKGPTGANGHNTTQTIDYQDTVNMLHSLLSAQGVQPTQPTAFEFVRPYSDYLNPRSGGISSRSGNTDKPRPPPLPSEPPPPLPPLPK

Take `CS(=N)(=O)Cc1cc(Cl)cc(Nc2ncc(F)c(-c3ccc(F)cc3F)n2)c1` (racemic) [Example 15, (rac)-N-{3-chloro-5-[(S-methylsulfonimidoyl)methyl]phenyl}-4-(2,4-difluorophenyl)-5-fluoropyrimidin-2-amine]: the IC50 is 24 nM against CDK9/CycT1 and 630 nM at CDK2/CycE. Besides, at CDK9/CycT1, the “Selectivity CDK9/CDK2” value is recorded as 26.

On to `CS(=O)(Cc1cc(Nc2ncc(F)c(-c3ccc(F)cc3F)n2)cc(S(F)(F)(F)(F)F)c1)=NC#N` (racemic) [Example 28, (rac)-{[3-{[4-(2,4-Difluorophenyl)-5-fluoropyrimidin-2-yl]amino}-5-(pentafluoro-λ^6-sulfanyl)benzyl](methyl)oxido-λ^6-sulfanylidene}cyanamide], for which the IC50 against CDK9/CycT1 amounted to 6 nM; in experiment [1] (Homo sapiens, 96 h), 120 nM; in experiment [2] (Homo sapiens, NCI-H460, 96 h), 359 nM; at CDK2/CycE, 1300 nM; in experiment [3] (Homo sapiens, Caco-2, 96 h), 222 nM. Besides, the “Selectivity CDK9/CDK2” value at CDK9/CycT1 is listed as 210.

For `CS(=O)(Cc1cc(Nc2ncc(F)c(-c3ccc(F)cc3F)n2)cc(C(F)(F)F)c1)=NC#N` (single isomer, unassigned) [Example 2, {[3-{[4-(2,4-Difluorophenyl)-5-fluoropyrimidin-2-yl]amino}-5-(trifluoromethyl)benzyl](methyl)oxido-λ^6-sulfanylidene}cyanamide], the IC50 at CDK9/CycT1 is 7 nM; in experiment [1] (Homo sapiens, 96 h), 320 nM; in experiment [2] (Homo sapiens, NCI-H460, 96 h), 360 nM; on CDK2/CycE, 1200 nM; in experiment [3] (Homo sapiens, Caco-2, 96 h), 300 nM. In addition, the “Selectivity CDK9/CDK2” value on CDK9/CycT1 came to 166.

Regarding `CS(=O)(Cc1cc(Nc2ncc(F)c(-c3ccc(F)cc3F)n2)cc(S(F)(F)(F)(F)F)c1)=NC(N)=O` (single isomer, unassigned) [Example 33, 1-{[3-{[4-(2,4-Difluorophenyl)-5-fluoropyrimidin-2-yl]amino}-5-(pentafluoro-λ^6-sulfanyl)benzyl](methyl)oxido-λ^6-sulfanylidene}urea], the IC50 came out at 16 nM at CDK9/CycT1; 495 nM in experiment [1]; 675 nM in experiment [2]; 1600 nM against CDK2/CycE; 716 nM in experiment [3]. Also, at CDK9/CycT1, the “Selectivity CDK9/CDK2” value is 98.

In the case of `CS(=O)(Cc1cc(Nc2ncc(F)c(-c3ccc(F)cc3F)n2)cc(C(F)(F)F)c1)=NC(N)=O` (racemic) [Example 7, (rac)-1-{[3-{[4-(2,4-Difluorophenyl)-5-fluoropyrimidin-2-yl]amino}-5-(trifluoromethyl)benzyl](methyl)oxido-λ^6-sulfanylidene}urea], at CDK9/CycT1, the IC50 was found to be 12 nM and the “Selectivity CDK9/CDK2” value stood at 98. This compound yielded an IC50 on CDK2/CycE of 1100 nM.

`CS(=O)(Cc1cc(Nc2ncc(F)c(-c3ccc(F)cc3F)n2)cc(C(F)(F)F)c1)=NC#N` (single isomer, unassigned) [Example 3, {[3-{[4-(2,4-Difluorophenyl)-5-fluoropyrimidin-2-yl]amino}-5-(trifluoromethyl)benzyl](methyl)oxido-λ^6-sulfanylidene}cyanamide]: the IC50 was 8 nM against CDK9/CycT1; 200 nM in experiment [1]; 340 nM in experiment [2]; 1300 nM on CDK2/CycE; 300 nM in experiment [3]. Also, the “Selectivity CDK9/CDK2” value on CDK9/CycT1 is on record as 170.

As to `CS(=N)(=O)Cc1cc(Nc2ncc(F)c(-c3ccc(F)cc3F)n2)cc(C(F)(F)F)c1` (racemic) [Example 4, (rac)-4-(2,4-Difluorophenyl)-5-fluoro-N-{3-[(S-methylsulfonimidoyl)methyl]-5-(trifluoromethyl)phenyl}pyrimidin-2-amine], the IC50 at CDK9/CycT1 came out at 10 nM; against CDK2/CycE, 880 nM. For the same compound, on CDK9/CycT1, the “Selectivity CDK9/CDK2” value is recorded as 88.

Turning to `CS(=O)(Cc1cc(Nc2ncc(F)c(-c3ccc(F)cc3F)n2)cc(C(F)(F)F)c1)=NC#N` (racemic) [Example 1, (rac)-{[3-{[4-(2,4-Difluorophenyl)-5-fluoropyrimidin-2-yl]amino}-5-(trifluoromethyl)benzyl](methyl)oxido-λ^6-sulfanylidene}cyanamide], at CDK9/CycT1, the IC50 turned out to be 13 nM and the “Selectivity CDK9/CDK2” value is given as 105. Also, the IC50 against CDK2/CycE amounted to 1400 nM.

`CS(=N)(=O)Cc1cc(Nc2ncc(F)c(-c3ccc(F)cc3F)n2)cc(S(F)(F)(F)(F)F)c1` (single isomer, unassigned) [Example 32, 4-(2,4-Difluorophenyl)-5-fluoro-N-{3-[(S-methylsulfonimidoyl)methyl]-5-(pentafluoro-λ^6-sulfanyl)phenyl}pyrimidin-2-amine]: the IC50 is 6 nM against CDK9/CycT1; 304 nM in experiment [1] (Homo sapiens, 96 h); 483 nM in experiment [2] (Homo sapiens, NCI-H460, 96 h); 1600 nM against CDK2/CycE; 282 nM in experiment [3] (Homo sapiens, Caco-2, 96 h). The “Selectivity CDK9/CDK2” value on CDK9/CycT1 was determined as 263.

As for `CS(=O)(Cc1cc(Nc2ncc(F)c(-c3ccc(F)cc3F)n2)cc(C(F)(F)F)c1)=NC(N)=O` (single isomer, unassigned) [Example 23, 1-{[3-{[4-(2,4-Difluorophenyl)-5-fluoropyrimidin-2-yl]amino}-5-(trifluoromethyl)benzyl](methyl)oxido-λ^6-sulfanylidene}urea], the IC50 is 4 nM on CDK9/CycT1; 200 nM in experiment [1] (Homo sapiens, 96 h); 350 nM in experiment [2] (Homo sapiens, NCI-H460, 96 h); 370 nM against CDK2/CycE; 230 nM in experiment [3] (Homo sapiens, Caco-2, 96 h). Besides, the “Selectivity CDK9/CDK2” value at CDK9/CycT1 is reported as 88.

For the origin of these results see US9499492B2, “4-(ortho)-fluorophenyl-5-fluoropyrimidin-2-yl amines containing a sulfoximine group” (BAYER PHARMA AKTIENGESELLSCHAFT, priority 2012, dated 2016).
